Laboratory results from US8389527B2, “Substituted imidazopyridazines useful as kinase inhibitors” (Bristol-Myers Squibb Company, priority 2008, dated 2013).

Columns and labels:
HCT116 = test: Cell proliferation inhibition assay (MTT, CellTiter96); format: cell-based; conditions: Homo sapiens, HCT-116; HCT116 cells, 72 h with compound, MTT readout
Experimental: B. Cell Proliferation Inhibition Assay
Compounds were evaluated for their ability to inhibit cell proliferation, using an assay that measures mitochondrial metabolic activity, that is directly correlated with cell numbers. Cells were plated at 2000 cells/well in 96-well plates and were cultured for 24 h in RPMI-1640 supplemented with 2% fetal bovine serum, before test compounds were added. Compounds were diluted in culture medium such that the final concentration of dimethyl sulfoxide never exceeded 1%. Following the addition of compounds, the cells were cultured for an additional 72 h before cell viability was determined by measuring the conversion of 3-(4,5-dimethylthiazol-2-yl)-2,5-diphenyltetrazolium bromide (MTT) dye using the CellTiter96 kit (Promega).

recombinant CK2A1 = target: T1, recombinant CK2A1 (Homo sapiens, UniProt P68400); test: CK2 kinase assay (CK2A1), [γ-33P]ATP filter-binding; format: biochemical
T1 construct: purchased Invitrogen
Experimental: (§1) The effectiveness of compounds of the present invention as inhibitors of protein kinases can be readily tested by assays known to those skilled in the art. For example, in vitro protein kinase assays may be conducted with a relevant purified protein kinase and an appropriate synthetic substrate to determine the inhibitory activities of the compounds. […] Reaction mixtures were incubated at 30° C. for 1 h, and reaction products were captured by binding to phosphocellulose (P81) filter plates. Incorporation of radioactive phosphate into the peptide substrate was determined by liquid scintillation counting. The potency of compounds in inhibiting CK2 is expressed as IC50, defined as the concentrations of compounds required to inhibit the enzymatic activity by 50%.

recombinant CK2A2 = target: T2, recombinant CK2A2 (Homo sapiens, UniProt P19784); test: CK2 kinase assay (CK2A2), [γ-33P]ATP filter-binding; format: biochemical
T2 construct: purchased Upstate Biotechnology
Experimental: as §1

[1] = recombinant CK2A1 10 nM, ATP 25 μM, 10 μM peptide substrate, 30° C. 1 h
[2] = recombinant CK2A2 5 nM, ATP 5 μM, 10 μM peptide substrate, 30° C. 1 h
[3] = comparison examples of U.S. 2007/038314 (Table 2)

T1 sequence (P68400 whole entry): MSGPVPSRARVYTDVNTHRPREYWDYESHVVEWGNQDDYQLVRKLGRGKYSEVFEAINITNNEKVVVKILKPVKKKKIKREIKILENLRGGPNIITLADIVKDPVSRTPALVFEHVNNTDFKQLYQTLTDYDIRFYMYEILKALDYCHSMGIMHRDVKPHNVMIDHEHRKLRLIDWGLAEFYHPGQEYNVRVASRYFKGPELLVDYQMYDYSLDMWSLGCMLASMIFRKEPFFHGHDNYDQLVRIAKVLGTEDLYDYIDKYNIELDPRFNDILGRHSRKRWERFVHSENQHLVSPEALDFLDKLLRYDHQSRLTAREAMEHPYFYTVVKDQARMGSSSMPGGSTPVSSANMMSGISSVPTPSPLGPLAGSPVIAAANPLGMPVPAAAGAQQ
T2 sequence (P19784 whole entry): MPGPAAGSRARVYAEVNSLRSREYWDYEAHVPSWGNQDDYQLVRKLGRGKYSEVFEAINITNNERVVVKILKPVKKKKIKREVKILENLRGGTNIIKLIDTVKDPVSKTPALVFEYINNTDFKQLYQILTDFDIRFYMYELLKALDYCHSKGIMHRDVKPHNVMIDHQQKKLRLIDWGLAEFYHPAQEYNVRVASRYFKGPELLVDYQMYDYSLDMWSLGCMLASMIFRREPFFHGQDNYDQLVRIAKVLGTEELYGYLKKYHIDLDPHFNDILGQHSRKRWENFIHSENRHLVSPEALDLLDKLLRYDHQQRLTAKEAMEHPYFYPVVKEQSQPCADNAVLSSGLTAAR

IC50 (HCT116) | IC50 (recombinant CK2A1; [1]) | IC50 (recombinant CK2A2; [2]) | IC50 (recombinant CK2A1; [3]) | IC50 (recombinant CK2A2; [3]) | Compound
300 nM | 15 nM | 6 nM |  |  | N[C@H]1CC[C@H](Nc2cc(NC3CC3)c3ncc(C(=O)Nc4ccncc4)n3n2)CC1 [Example 390, 6-((trans-4-aminocyclohexyl)amino)-8-(cyclopropylamino)-N-4-pyridinylimidazo [1,2-b]pyridazine-3-carboxamide]
 |  |  | > 50000 nM | > 50000 nM | N[C@H]1CC[C@H](Nc2cc(Nc3ccccc3)c3nccn3n2)CC1 [I(7), reference compound]
> 2500 nM | 153 nM | 61 nM |  |  | NCCN[C@H]1CC[C@H](Nc2cc(NC3CC3)c3ncc(C(=O)Nc4ccnc(F)c4)n3n2)CC1 [Example 526, 6-((trans-4-((2-aminoethyl)amino)cyclohexyl)amino)-8-(cyclopropylamino)-N-(2-fluoro-4-pyridinyl)imidazo [1,2-b]pyridazine-3-carboxamide]
170 nM | 86 nM | 11 nM |  |  | N[C@H]1CC[C@H](Nc2cc(NC3CC3)c3ncc(C(=O)Nc4ccnc(F)c4)n3n2)CC1 [Example 25C, 6-((trans)-4-aminocyclohexylamino)-8-(cyclopropylamino)-N-(2-fluoropyridin-4-yl)imidazo[1,2-b]pyridazine-3-carboxamide]
290 nM | 71 nM | 18 nM |  |  | Cc1cc(Nc2cc(N[C@H]3CC[C@H](N)CC3)nn3c(C(=O)Nc4ccnc(Cl)c4)cnc23)nn1C [Example 542, 6-((trans-4-aminocyclohexyl)amino)-N-(2-chloro-4-pyridinyl)-8-((1,5-dimethyl-1H-pyrazol-3-yl)amino)imidazo[1,2-b]pyridazine-3-carboxamide]
> 2500 nM | 26.5 nM | 0.4 nM |  |  | COCC(=O)N[C@H]1CC[C@H](Nc2cc(NC3CC3)c3ncc(C(=O)Nc4ccnc(Cl)c4)n3n2)CC1 [Example 167, N-(2-chloro-4-pyridinyl)-8-(cyclopropylamino)-6-((trans-4-((methoxyacetyl)amino)cyclohexyl)amino) imidazo[1,2-b]pyridazine-3-carboxamide]
2310 nM | 43 nM | 46 nM |  |  | N[C@H]1CC[C@H](Nc2cc(N[C@H]3C[C@@H](CO)C3)c3ncc(C(=O)Nc4ccncc4F)n3n2)CC1 [Example 476, 6-((trans-4-aminocyclohexyl)amino)-N-(3-fluoro-4-pyridinyl)-8-((cis-3-(hydroxymethyl)cyclobutyl)amino) imidazo[l,2-b]pyridazine-3-carboxamide]
> 2500 nM | 121 nM | 34 nM |  |  | N[C@H]1CC[C@H](Nc2cc(Nc3cccc(N4CCNCC4)n3)c3ncc(C(=O)Nc4ccncc4F)n3n2)CC1 [Example 481, 6-((trans-4-aminocyclohexyl)amino)-N-(3-fluoro-4-pyridinyl)-8-((6-(1-piperazinyl)-2-pyridinyl)amino)imidazo [1,2-b]pyridazine-3-carboxamide]
920 nM | 13.8 nM | 0.7 nM |  |  | N[C@H](Cc1cscn1)C(=O)N[C@H]1CC[C@H](Nc2cc(NC3CC3)c3ncc(C(=O)Nc4ccnc(Cl)c4)n3n2)CC1 (relative stereo) [Example 179, N-(2-chloro-4-pyridinyl)-8-(cyclopropylamino)-6-((trans-4-((3-(1,3-thiazol-4-yl)-D-alanyl)amino)cyclohexyl)amino)imidazo[1,2-b]pyridazine-3-carboxamide]
560 nM | 29.6 nM | 0.4 nM |  |  | NCC(=O)N[C@H]1CC[C@H](Nc2cc(NC3CC3)c3ncc(C(=O)Nc4ccnc(Cl)c4)n3n2)CC1 [Example 163, N-(2-chloro-4-pyridinyl)-8-(cyclopropylamino)-6-((trans-4-(glycylamino)cyclohexyl)amino)imidazo [1,2-b]pyridazine-3-carboxamide]
170 nM | 42 nM | 17 nM |  |  | O=C(Nc1ccnc(F)c1)c1cnc2c(NC3CC3)cc(N[C@H]3CC[C@H](O)CC3)nn12 [Example 13, 8-(cyclopropylamino)-N-(2-fluoro-4-pyridinyl)-6-((trans-4-hydroxycyclohexyl)amino)imidazo[1,2-b]pyridazine-3-carboxamide]
140 nM | 34 nM | 8 nM |  |  | O=C(Nc1ccncc1F)c1cnc2c(Nc3cccc(N[C@H]4CC[C@H](O)CC4)n3)cc(N[C@H]3CC[C@H](O)CC3)nn12 [Example 45, N-(3-fluoro-4-pyridinyl)-6-((trans-4-hydroxycyclohexyl)amino)-8-((6-((trans-4-hydroxycyclohexyl)amino)-2-pyridinyl)amino)imidazo[1,2-b]pyridazine-3-carboxamide]
388 nM | 57 nM |  |  |  | COC(=O)CN[C@H]1CC[C@H](Nc2cc(NC3CC3)c3ncc(C(=O)Nc4ccncc4F)n3n2)CC1 [Example 523, methyl N-(trans-4-((8-(cyclopropylamino)-3-((3-fluoro-4-pyridinyl)carbamoyl)imidazo[1,2-b]pyridazin-6-yl)amino)cyclohexyl)glycinate]
500 nM | 62.6 nM | 1.5 nM |  |  | CCN(C)C(=O)N[C@H]1CC[C@H](Nc2cc(NC3CC3)c3ncc(C(=O)Nc4ccnc(Cl)c4)n3n2)CC1 [Example 278, N-(2-chloro-4-pyridinyl)-8-(cyclopropylamino)-6-((trans-4-((ethyl(methyl)carbamoyl)amino)cyclohexyl)amino)imidazo[1,2-b]pyridazine-3-carboxamide]
90 nM | 11 nM | 3 nM |  |  | C[C@@H](N)C(=O)N[C@H]1CC[C@H](Nc2cc(Nc3ccccn3)c3ncc(C(=O)Nc4ccncc4F)n3n2)CC1 [Example 6, 6-((trans-4-(D-alanylamino)cyclohexyl)amino)-N-(3-fluoro-4-pyridinyl)-8-(2-pyridinylamino)imidazo[1,2-b]pyridazine-3-carboxamide]
800 nM | 306 nM | 73 nM |  |  | O=C(Nc1ccnc(Cl)c1)c1cnc2c(NC3CC3)cc(NC3CC[S+]([O-])CC3)nn12 (stereo not shown) [Example 572, 4-((3-((2-chloro-4-pyridinyl)carbamoyl)-8-(cyclopropylamino)imidazo[1,2-b]pyridazin-6-yl)amino)tetrahydro-2H-thiopyranium-1-olate]
220 nM | 17.4 nM | 1.7 nM |  |  | C[C@@H](O)CC(=O)N[C@H]1CC[C@H](Nc2cc(NC3CC3)c3ncc(C(=O)Nc4ccnc(Cl)c4)n3n2)CC1 [Example 195, N-(2-chloro-4-pyridinyl)-8-(cyclopropylamino)-6-((trans-4-(((3R)-3-hydroxybutanoyl)amino)cyclohexyl)amino) imidazo[1,2-b]pyridazine-3-carboxamide]
80 nM | 35 nM | 15 nM |  |  | N[C@H]1CC[C@H](Nc2cc(NC3CCC3)c3ncc(C(=O)Nc4ccncc4)n3n2)CC1 [Example 3, 6-((trans-4-aminocyclohexyl)amino)-8-(cyclobutylamino)-N-4-pyridinylimidazo[1,2-b]pyridazine-3-carboxamide]
 |  |  | > 50000 nM | 10300 nM | CCOc1ccc(Nc2cc(N[C@H]3CC[C@H](N)CC3)nn3ccnc23)cc1 [I(1), reference compound]
 |  |  | > 50000 nM |  | Cc1ccc(Nc2cc(N[C@H]3CC[C@H](N)CC3)nn3ccnc23)nc1 [II(16), reference compound]
